Target: T1, human DP2 receptor (Homo sapiens, UniProt Q9Y5Y4)
T1 construct: expressed in transfected cells; membrane preparation
T1 sequence (Q9Y5Y4 1-395): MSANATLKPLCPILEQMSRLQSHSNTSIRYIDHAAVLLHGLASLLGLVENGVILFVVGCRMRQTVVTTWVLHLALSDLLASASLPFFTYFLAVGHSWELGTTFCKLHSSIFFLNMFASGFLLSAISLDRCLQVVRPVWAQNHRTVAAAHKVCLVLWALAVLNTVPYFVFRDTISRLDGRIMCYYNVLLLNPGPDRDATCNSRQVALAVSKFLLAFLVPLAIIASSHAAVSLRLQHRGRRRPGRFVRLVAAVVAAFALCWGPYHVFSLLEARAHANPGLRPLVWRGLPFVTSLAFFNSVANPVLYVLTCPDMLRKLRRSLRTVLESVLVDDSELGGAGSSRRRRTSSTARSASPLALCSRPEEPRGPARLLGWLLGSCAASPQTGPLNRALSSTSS
Assay: DP2/CRTH2 radioligand binding assay using [3H]PGD2
Details: hDP2 (CRTH2) binding assay; membranes of HEK293 cells expressing recombinant human DP2, 1 nM [3H]PGD2
Description: The ability of a compound to bind to the human DP2 receptor is assessed via a radioligand binding assay using [^3H]PGD2. HEK293 cells stably expressing recombinant human DP2 are resuspended in 10 mM Hepes, 7.4 containing 1 mM DTT, lysed and centrifuged at 75,000×g to pellet the membranes. The membranes are resuspended in 10 mM Hepes, 7.4 containing 1 mM DTT and 10% glycerol to approximately 5 mg protein/ml. Membranes (2-10 μg protein/well) are incubated in 96-well plates with 1 nM [^3H]PGD2 and test compound in Assay Buffer (50 mM Hepes, 10 mM MnCl2, 1 mM EDTA, plus or minus 0.2% human serum albumin, pH 7.4) for 60 minutes at room temperature. The reactions are terminated by rapid filtration through Whatman GF/C glass fibre filter plates. The filter plates were pre-soaked in 0.33% polythylenimine for 30 minutes at room temperature then washed in Wash Buffer (50 mM Hepes, 0.5 M NaCl pH 7.4) prior to harvesting. After harvesting, the filter plates are washed 3 times with 1 ml cold Wash Buffer then dried. Scintillant is then added to the plates and the radioactivity retained on the filters is determined on a Packard TopCount (Perkin Elmer). Specific binding is determined as total radioactive binding minus non-specific binding in the presence of 10 μM PGD2. IC50s were determined using GraphPad prism analysis of drug titration curves.

SMILES	IC50 [nM]
CCN(Cc1cc(C(F)(F)F)ccc1-c1cccc(CC(=O)O)n1)C(=O)C1CC1 [Compound 1-40, (6-{2-[(N-Cyclopropanecarbonyl-N-ethyl-amino)-methyl]-4-trifluoromethyl-phenyl}-pyridin-2-yl)-acetic acid]	> 1000
CCN(Cc1cc(C(F)(F)F)ccc1-c1cccc(CC(=O)O)n1)C(=O)OC(C)(C)C [Compound 1-38, (6-{2-[(N-tert-Butoxycarbonyl-N-ethyl-amino)-methyl]-4-trifluoromethyl-phenyl}-pyridin-2-yl)-acetic acid]	> 1000
CCN(Cc1cc(F)ccc1-c1cncc(C(C)C(=O)O)c1)C(=O)NCc1ccccc1 (centres unmarked) [Compound 1-12, 2-{5-[2-(3-Benzyl-1-ethyl-ureidomethyl)-4fluoro-phenyl]-pyridin-3-yl}-propionic acid]	300 to 1000
CCN(Cc1cc(F)ccc1-c1cncc(C(C)C(=O)O)c1)C(=O)C1CC1 (centres unmarked) [Compound 1-13, 2-(5-[2-[(N-Cyclopropanecarbonyl-N-ethyl-amino)-methyl]-4-fluoro-phenyl]-pyridin-3-yl)-propionic acid]	> 1000
Cc1cnc(CN(Cc2cc(C(F)(F)F)ccc2-c2cncc(CC(=O)O)c2)C(=O)C2CC2)cn1 [Compound 1-58, [5-(2-{[N-Cyclopropanecarbonyl-N-(5-methyl-pyrazin-2-ylmethyl)-amino]-methyl}-4-trifluoromethyl-phenyl)-pyridin-3-yl]-acetic acid]	< 300

Now from value to compound:

IC50 [nM]	SMILES
< 300	C[C@H]1[C@@H](c2ccccc2)OC(=O)N1Cc1cc(C(F)(F)F)ccc1-c1cncc(CC(=O)O)c1 [Compound 2-1, {5-[2-((4S,5R)-4-Methyl-2-oxo-5-phenyl-oxazolidin-3-ylmethyl)-4-trifluoromethyl-phenyl]-pyridin-3-yl}-acetic acid]
< 300	CCN(Cc1cc(C(F)(F)F)ccc1-c1cc(CC(=O)O)cnc1OCc1csc(C)n1)C(=O)C1CC1 [Compound 1-70, [5-{2-[(N-Cyclopropanecarbonyl-N-ethyl-amino)-methyl]-4-trifluoromethyl-phenyl}-6-(2-methyl-thiazol-4-ylmethoxy)-pyridin-3-yl]-acetic acid]
< 300	O=C(O)Cc1cncc(-c2ccc(C(F)(F)F)cc2CN(Cc2ccc(C(F)(F)F)nc2)C(=O)C2CC2)c1 [Compound 1-59, [5-(2-{[N-Cyclopropanecarbonyl-N-(6-trifluoromethyl-pyridin-3-ylmethyl)-amino]-methyl}-4-trifluoromethyl-phenyl)-pyridin-3-yl]-acetic acid]
< 300	Cc1nn(CC(=O)O)c(C)c1-c1ccc(C(F)(F)F)cc1CN(Cc1ccccc1)C(=O)C1CC1 [Compound 3-3, (4-{2-[(N-Benzyl-N-cyclopropanecarbonyl-amino)-methyl]-4-trifluoromethyl-phenyl}-3,5-dimethyl-pyrazol-1-yl)-acetic acid]
< 300	CC(=O)N(Cc1ccccn1)Cc1cc(C(F)(F)F)ccc1-c1cncc(CC(=O)O)c1 [Compound 1-53, (5-{2-[(N-Acetyl-N-pyridin-2-ylmethyl-amino)-methyl]-4-trifluoromethyl-phenyl}-pyridin-3-yl)-acetic acid]
< 300	CCN(Cc1cc(C(F)(F)F)ccc1-c1cncc(CC(=O)O)c1)S(=O)(=O)c1cccc2c(N(C)C)cccc12 [Compound 1-77, [5-(2-{[N-(5-Dimethylamino-naphthalene-1-sulfonyl)-N-ethyl-amino]-methyl}-4-trifluoromethyl-phenyl)-pyridin-3-yl]-acetic acid]
